Source: patent publication US7282512B2, “Cycloalkyl ketoamides derivatives useful as cathepsin K inhibitors” (SmithKline Beecham Corporation, priority 2002, dated 2007)
Read-outs that look alike come from different tables or passages of the source.

How the values were obtained:
Format in all cases: biochemical
human cathepsin K = molecular target: T1, human cathepsin K (Homo sapiens, UniProt P43235); assay: cathepsin K inhibition assay, fluorogenic substrate Cbz-Phe-Arg-AMC, progress curve method; conditions: human recombinant enzyme, 10 μM substrate
T1 construct: The proform of cathepsin K was converted to mature cathepsin K by brief exposure to pH 4; made in house; host or cells: baculovirus; Trichoplusia ni High Five cells (virus raised in Sf-9)
T1 sequence (P43235 115-329): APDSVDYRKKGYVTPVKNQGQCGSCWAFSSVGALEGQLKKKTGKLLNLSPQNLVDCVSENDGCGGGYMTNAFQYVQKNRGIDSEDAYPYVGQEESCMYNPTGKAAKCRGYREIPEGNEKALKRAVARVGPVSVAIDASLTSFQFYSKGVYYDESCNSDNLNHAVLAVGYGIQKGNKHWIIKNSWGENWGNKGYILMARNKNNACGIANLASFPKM
Experimental: All assays for cathepsin K were carried out with human and rat recombinant enzyme. Assays for cathepsins S & V were also carried out with human recombinant enzyme. Assays for human cathepsins B, H, and L were carried out with enzyme, purchased from Athens Research and Technology, Inc., prepared from human liver tissue. […] A stock substrate solution of Cbz-Phe-Arg-AMC was prepared at a concentration of 50 mM in dimethyl sulfoxide. This substrate was diluted into the assay for a final substrate concentration of 10 μM in the rat cathepsin K, human cathepsin K, and human cathepsin B assays; a final substrate concentration of 5 μM in the human cathepsin L assay; and a final substrate concentration of 2 μM in the human cathepsin V assay.
(§1) All assays contained 10% dimethyl sulfoxide. […] All assays were conducted at 30° C. Product fluorescence (excitation at 360 nm; emission at 440 nm, (except cathepsin H which used excitation at 340 nm; emission at 420 nm)) was monitored with a PerSeptive Biosystems Cytofluor II fluorescence plate reader. Product progress curves were generated over 2.3 h monitoring the formation of 7-amino-4-methylcoumarin product (or β-naphthalamide for cathepsin H).
Two liters of Spodoptera frugiperda (Sf-9) cells (ATCC) were grown in Grace's Supplemented medium (Life Technologies) supplemented with 2 g/L glucose, 10% fetal bovine serum (HyClone) and 0.1% pluronic F-68 (Life Technologies). […] The cells continued to grow for 72 h post-infection, before the virus was harvested by centrifugation at 1400×g for 30 min.
One and one-half liters of Trichoplusia ni (T. ni) High Five (™) cells [JRH Biosciences, Woodland, Calif. […] Media were separated from cells at a rate of 1 L/min using the Centritech 100 (™) continuous-flow centrifuge (DuPont) operating at 200×g.
Protein Purification: Media (human and rat) were filtered through a Whatman 3 filter, and then loaded onto a 25 mL Poros HS II (26 mm×47 mm) cation exchange column equilibrated in 25 mM sodium acetate at pH 5.5 (equilibration buffer). The column was washed until the absorbance reached the baseline value, and then the protein was eluted with a linear gradient from 0-2 M sodium chloride in the equilibration buffer. Column fractions were analyzed by SDS-PAGE, N-terminal sequencing, and mass spectrometry. Fractions containing the proform of cathepsin K were pooled and frozen at −80° C. The proform was concentrated in an Amicon Centriprep 10 and fractionated with a Superdex 75 column (26 mm×600 mm, Pharmacia) equilibrated in 400 mM sodium chloride, 25 mM sodium acetate at pH 5.5.
Cathepsin K Activation: The proform of cathepsin K was converted to mature cathepsin K by brief exposure to pH 4 in the presence of 5 mM L-cysteine. Typically, 5 mM L-cysteine was added to 10 mL of approximately 1 mg/mL procathepsin K. One mL of this solution was diluted ten-fold into 450 mM sodium acetate at pH 4.0 containing 5 mM L-cysteine. This solution was reacted at 23° C. for 2 min before neutralization with 2 mL 1.8 M sodium acetate at pH 6.0. The neutralized sample was added to the remaining 9 mL of procathepsin K. The mixture was incubated at 4° C. for 2-3 days. The activated cathepsin K was chromatographed on a Poros HS II column as described above.
Potential inhibitors were evaluated using the progress curve method. Assays were carried out in the presence of variable concentrations of test compound. Reactions were initiated by addition of buffered solutions of inhibitor and substrate to enzyme. Data analysis was conducted according to one of two procedures depending on the appearance of the progress curves in the presence of inhibitors. […] Ki values were calculated from IC50 values using equation 2 assuming a competitive model.

human cathepsin B = human cathepsin B (Homo sapiens, UniProt P07858); assay: cathepsin B inhibition assay, fluorogenic substrate Cbz-Phe-Arg-AMC; conditions: Table 2; enzyme from human liver tissue, 10 μM substrate; read-out: hCat B Ki
Experimental: (§2) All assays for cathepsin K were carried out with human and rat recombinant enzyme. Assays for cathepsins S & V were also carried out with human recombinant enzyme. Assays for human cathepsins B, H, and L were carried out with enzyme, purchased from Athens Research and Technology, Inc., prepared from human liver tissue. Standard assay conditions for the determination of kinetic constants used a fluorogenic peptide substrate, typically (5S,8S)-13-amino-5-benzyl-13-imino-3-methylene-N-(4-methyl-2-oxo-2H-chromen-7-yl)-6-oxo-1-phenyl-2-oxa-4,7,12-triazatridecane-8-carboxamide (Cbz-Phe-Arg-AMC), and were determined in 100 mM sodium acetate at pH 5.5 containing 10 mM dithiothreitol and 120 mM sodium chloride. A stock substrate solution of Cbz-Phe-Arg-AMC was prepared at a concentration of 50 mM in dimethyl sulfoxide. This substrate was diluted into the assay for a final substrate concentration of 10 μM in the rat cathepsin K, human cathepsin K, and human cathepsin B assays; a final substrate concentration of 5 μM in the human cathepsin L assay; and a final substrate concentration of 2 μM in the human cathepsin V assay.
as §1
(§3) Potential inhibitors were evaluated using the progress curve method. […] For those compounds whose progress curves were linear, the enzymatic activity (RATE) was plotted against the concentration of test compound, including inhibitor concentration of zero ([I]=0), and the IC50 determined from a fit of equation 1 to the data, RATE=Vmax/(1+([I]/IC50)) (1) where Vmax is the best fit estimate of the maximal enzymatic activity. Ki values were calculated from IC50 values using equation 2 assuming a competitive model.

human cathepsin L = human cathepsin L (Homo sapiens, UniProt P07711); assay: cathepsin L inhibition assay, fluorogenic substrate Cbz-Phe-Arg-AMC; conditions: Table 2; enzyme from human liver tissue, 5 μM substrate; read-out: hCat L Ki
Sequence of human cathepsin L (P07711 114-288 limits assumed): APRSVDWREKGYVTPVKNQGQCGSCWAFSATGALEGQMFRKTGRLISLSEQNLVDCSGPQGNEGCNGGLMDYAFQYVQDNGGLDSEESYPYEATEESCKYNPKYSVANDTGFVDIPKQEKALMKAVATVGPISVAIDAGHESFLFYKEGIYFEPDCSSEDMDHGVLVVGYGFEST
Sequence of human cathepsin L (P07711 292-333 limits assumed): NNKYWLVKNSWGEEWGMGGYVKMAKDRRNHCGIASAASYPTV
Experimental: as §2, §1, §3

human cathepsin V = human cathepsin V (Homo sapiens, UniProt O60911); assay: cathepsin V inhibition assay, fluorogenic substrate Cbz-Phe-Arg-AMC; conditions: Table 2; human recombinant enzyme, 2 μM substrate; read-out: hCat V Ki
Sequence of human cathepsin V (O60911 114-334): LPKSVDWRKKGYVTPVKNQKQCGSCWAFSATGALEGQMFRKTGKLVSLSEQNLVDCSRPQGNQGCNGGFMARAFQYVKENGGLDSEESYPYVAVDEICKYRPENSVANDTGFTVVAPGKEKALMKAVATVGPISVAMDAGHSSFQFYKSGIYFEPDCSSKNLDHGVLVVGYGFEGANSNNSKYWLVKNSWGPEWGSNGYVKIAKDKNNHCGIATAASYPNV
Experimental: as §2, §1, §3

[1] = Table 1, pH 5.5, 30° C., read-out: hcatK Ki

CCCC[C@H](NC(=O)OC1(c2nc3ccccc3s2)CCCC1)C(=O)C(=O)Nc1ccn[nH]1 [Example 17, 1-(1,3-Benzothiazol-2-yl)cyclopentyl(1S)-1-[oxo(1H-pyrazol-3-ylamino)acetyl]pentylcarbamate]
Ki (human cathepsin K; [1]): 1 to 10 nM
Ki (human cathepsin K; Table 2, read-out: hCat K Ki): 1 to 10 nM
Ki (human cathepsin B): > 1000 nM
Ki (human cathepsin L): 10 to 100 nM
Ki (human cathepsin V): 10 to 100 nM

CCCC[C@H](NC(=O)OC1(Cc2ccccc2)CCCC1)C(=O)C(=O)N[C@@H](C)C(=O)OCc1ccccc1 [Example 3, Benzyl (2S)-2-{[(3S)-3-({[(1-benzylcyclopentyl)oxy]carbonyl}amino)-2-oxoheptanoyl]amino}propanoate]
Ki (human cathepsin K; [1]): 10 to 100 nM
Ki (human cathepsin K; Table 2, read-out: hCat K Ki): 10 to 100 nM
Ki (human cathepsin B): > 1000 nM
Ki (human cathepsin L): > 1000 nM
Ki (human cathepsin V): > 1000 nM

CCCC[C@H](NC(=O)OCC1(Cc2ccc(F)cc2)CCC1)C(=O)C(=O)Nc1n[nH]c2cc(Cl)ccc12 [Example 15, [1-(4-fluorobenzyl)cyclobutyl]methyl(1S)-1-[[(6-chloro-1H-indazol-3-yl)amino](oxo)acetyl]pentylcarbamate]
Ki (human cathepsin K; [1]): < 1 nM
Ki (human cathepsin K; Table 2, read-out: hCat K Ki): < 1 nM
Ki (human cathepsin B): 100 to 1000 nM
Ki (human cathepsin L): 10 to 100 nM
Ki (human cathepsin V): 1 to 10 nM
